From patent US11840528B2 (Hoffmann-La Roche Inc., priority 2018, dated 2023)

How the values were obtained:
[1] = target: T1, h-GABA-A α5β3γ2 (Homo sapiens, UniProt P18507+P31644); experiment: Two-electrode voltage clamp electrophysiology in Xenopus laevis oocytes expressing GABAA receptors, modulation of GABA EC20 current; assay type: cell-based; set-up: host or cells: Xenopus laevis oocytes micro-injected with RNA transcripts of the subunits; settings: Table 1; for Efficacy (GABA) %: % modulation of GABA EC20 = 100*(Fold increase-1); for Fold increase h-GABA-A α5β3γ2 oocyte: test compound at approx. 30 fold its Ki, GABA at EC20
Experimental: Xenopus laevis oocytes at maturation stages V-VI were used for the expression of cloned mRNA encoding GABAA receptor subunits. Oocytes ready for RNA micro-injection were bought from Ecocyte, Castrop-Rauxel, Germany and stored in modified Barth's medium (composition in mM: NaCl 88, KCl 1, NaHCO32.4, HEPES 10, MgSO4 0.82, CaNO3 0.33, CaCl2 0.33, pH=7.5) at 20° C. until the experiment.
Oocytes were plated in 96-well plates to be used in an automated instrument (Robo-ocyte, MultiChannelSystems, Reutlingen, Germany) for microinjection and electrophysiological recordings. Approximately 50 nl of an aqueous solution containing the RNA transcripts for the subunits of the desired GABAA receptor was injected into each oocyte. RNA concentrations ranged between 0.3 and 16 ng/μl/subunit and were adjusted in pilot experiments to obtain GABA responses of a suitable size and a maximal effect of the reference modulator, Beta-CCM (β-CCM), a betacarboline negative allosteric modulator (NAM) at the GABAA receptor benzodiazepine (BZD) binding site or Midazolam, a benzodiazepine positive allosteric modulator (PAM) at the GABAA receptor benzodiazepine (BZD) binding site. The concentration of the γ2 subunit encoding RNA usually was 5- to 10-fold higher than the RNAs encoding the other subunits. Oocytes were kept in modified Barth's medium (composition in mM: NaCl 88, KCl 1, NaHCO3 4, HEPES 10, MgSO4 0.82, CaNO3 0.33, CaCl2) 0.33, pH=7.5) at 20° C. until the experiment.
Electrophysiological experiments were performed on days 3 to 5 after the micro-injection of mRNA. During the experiment the oocytes were constantly superfused by a solution containing (in mM) NaCl 90, KCl 1, HEPES 5, MgCl2 1, CaCl2) 1 (pH 7.4). Oocytes were impaled by two glass microelectrodes (resistance: 0.4 MΩ) which were filled with a solution containing KCl 1M+K-acetate 1.5 M and voltage-clamped to −80 mV. The recordings were performed at room temperature using the Roboocyte two-electrode voltage clamp system (Multichannelsystem). After an initial equilibration period of 1.5 min GABA was added for 1.5 min at a concentration evoking approximately 20% of a maximal current response (EC20). After another rest interval of 2.5 min GABA was again added evoking a response of similar amplitude and shape. 0.5 min after the onset of this second GABA application the test compound, at a concentration corresponding to approximatively 30 fold its Ki, was added while GABA was still present. Current traces were recorded at a digitization rate of 10 Hz during and shortly before and after the GABA application.
Each compound and concentration was tested on at least 3 oocytes. Different oocytes were used for different compound concentrations. β-CCM, a negative allosteric modulator, or Midazolam, a positive allosteric modulators, were tested on a few (3-6) oocytes on each 96-well plate for a positive control at a maximally effective. β-CCM inhibited the GABA-evoked current by approximatively 50% (Fold increase ˜0.5), while Midazolam potentiated the GABA-induced current by approximatively 150% (Fold increase ˜2.5).
For the analysis, the digitized current traces of the first and second GABA response were superimposed and, if necessary, rescaled to equal maximal amplitudes. The ratio between the two responses during the time interval of test compound application was calculated point by point. The extremum of the resulting “ratio trace” was taken as the efficacy (“Fold increase”) of the compound expressed as “% modulation of GABA EC20” (100*(Fold increase-1)).

[2] = target: T1, h-GABA-A α5β3γ2; experiment: [3H]flumazenil competition binding assay, membranes of HEK293 cells expressing GABAA receptors; settings: displacement of [3H]-Flumazenil 0.5 nM, HEK293 cells expressing human receptors, mean of two determinations; Table 1
Experimental: The affinity of compounds at GABAA receptor subtypes was measured by competition for [3H]flumazenil (85 Ci/mmol; Roche) binding to HEK293 cells expressing rat (stably transfected) or human (transiently transfected) receptors of composition α1β3γ2, α2β3γ2, α3β3γ2 and α5β3γ2.
Cell pellets were suspended in Krebs-tris buffer (4.8 mM KCl, 1.2 mM CaCl2), 1.2 mM MgCl2, 120 mM NaCl, 15 mM Tris; pH 7.5; binding assay buffer), homogenized by polytron for ca. 20 sec on ice and centrifuged for 60 min at 4° C. (50000 g; Sorvall, rotor: SM24=20000 rpm). The cell pellets were resuspended in Krebs-tris buffer and homogenized by polytron for ca. 15 sec on ice. Protein was measured (Bradford method, Bio-Rad) and aliquots of 1 mL were prepared and stored at −80° C.
Assays were incubated to equilibrium for 1 hour at 4° C. and harvested onto GF/C uni-filters (Packard) by filtration using a Packard harvester and washing with ice-cold wash buffer (50 mM Tris; pH 7.5). After drying, filter-retained radioactivity was detected by liquid scintillation counting. Ki values were calculated using Excel-Fit (Microsoft) and are the means of two determinations.

SMILES	Efficacy (GABA) % [1]	Fold increase h-GABA-A α5β3γ2 oocyte [1]	Ki [2]
Cc1ccc(-c2noc(C)c2Cn2ncc(N3C[C@@H](C)O[C@@H](C)C3)cc2=O)cn1 [Example 7, 5-(cis-2,6-dimethylmorpholin-4-yl)-2-((5-methyl-3-(6-methylpyridin-3-yl)-1,2-oxazol-4-yl)methyl)pyridazin-3-one]	253%	3.53	1 nM
CCOC(=O)C1CCN(c2cnn(Cc3c(-c4ccc(C)nc4)noc3C)c(=O)c2)CC1 [Example 8, ethyl 1-(1-((5-methyl-3-(6-methylpyridin-3-yl)-1,2-oxazol-4-yl)methyl)-6-oxopyridazin-4-yl)piperidine-4-carboxylate]	168%	2.68	26.4 nM
Cc1ccc(-c2noc(C)c2Cn2ncc(N3CCN(C(=O)C4CC4)CC3)cc2=O)cn1 [Example 9, 5-(4-(cyclopropanecarbonyl)piperazin-1-yl)-2-((5-methyl-3-(6-methylpyridin-3-yl)isoxazol-4-yl)methyl)pyridazin-3(2H)-one]	153%	2.53	15.9 nM
Cc1ccc(-c2noc(C)c2Cn2ncc(N3CCN(C(=O)C4(C)CC4)CC3)cc2=O)cn1 [Example 10, 2-((5-methyl-3-(6-methylpyridin-3-yl)isoxazol-4-yl)methyl)-5-(4-(1-methylcyclopropanecarbonyl)piperazin-1-yl)pyridazin-3(2H)-one]	222%	3.22	21.9 nM
Cc1onc(-c2ccc(F)cc2)c1Cn1ncc(N2CCOCC2)cc1=O [Example 11, 2-((3-(4-Fluorophenyl)-5-methylisoxazol-4-yl)methyl)-5-morpholinopyridazin-3(2H)-one]	57%	1.57	7.9 nM
Cc1onc(-c2ccc(F)cc2)c1Cn1ncc(N2C[C@@H](C)O[C@@H](C)C2)cc1=O [Example 12, 5-(cis-2,6-Dimethylmorpholino)-2-((3-(4-fluorophenyl)-5-methylisoxazol-4-yl)methyl)pyridazin-3(2H)-one]	114%	2.14	3.8 nM
Cc1onc(-c2ccc(Cl)cn2)c1Cn1ncc(N2C[C@@H](C)O[C@@H](C)C2)cc1=O [Example 13, 2-((3-(5-Chloropyridin-2-yl)-5-methylisoxazol-4-yl)methyl)-5-(cis-2,6-dimethylmorpholino)pyridazin-3(2H)-one]	94%	1.94	0.7 nM
C[C@@H]1CN(c2cnn(Cc3c(-c4ccc(Cl)cn4)noc3C3CC3)c(=O)c2)C[C@H](C)O1 [Example 14, 2-((3-(5-Chloropyridin-2-yl)-5-cyclopropylisoxazol-4-yl)methyl)-5-(cis-2,6-dimethylmorpholino)pyridazin-3(2H)-one]	166%	2.66	1.5 nM
Cc1onc(-c2ccc(F)cc2)c1Cn1ncc(N2CCN(C(=O)C3(C)CC3)CC2)cc1=O [Example 15, 2-((3-(4-Fluorophenyl)-5-methylisoxazol-4-yl)methyl)-5-(4-(1-methylcyclopropanecarbonyl)piperazin-1-yl)pyridazin-3(2H)-one]	120%	2.2	35.2 nM
Cc1onc(-c2ccc(Cl)cn2)c1Cn1ncc(N2CCN(C(=O)C3(C)CC3)CC2)cc1=O [Example 16, 2-((3-(5-Chloropyridin-2-yl)-5-methylisoxazol-4-yl)methyl)-5-(4-(1-methylcyclopropanecarbonyl)piperazin-1-yl)pyridazin-3(2H)-one]	139%	2.39	2.6 nM
Cc1ccc(-c2noc(C)c2Cn2ncc(N3CCOCC3)cc2=O)cn1 [Example 22, 2-[[5-methyl-3-(6-methyl-3-pyridyl)isoxazol-4-yl]methyl]-5-morpholino-pyridazin-3-one]	166%	2.66	3.2 nM
Cc1ccc(-c2noc(C)c2Cn2ncc(N3CCC(C(F)(F)F)CC3)cc2=O)cn1 [Example 24, 2-[[5-methyl-3-(6-methyl-3-pyridyl)isoxazol-4-yl]methyl]-5-[4-(trifluoromethyl)-1-piperidyl]pyridazin-3-one]	203%	3.03	14.6 nM
O=C(C1CC1)N1CCN(c2cnn(Cc3c(-c4ccc(Cl)cn4)noc3C3CC3)c(=O)c2)CC1 [Example 25, 2-((3-(5-Chloropyridin-2-yl)-5-cyclopropylisoxazol-4-yl)methyl)-5-(4-(cyclopropanecarbonyl)piperazin-1-yl)pyridazin-3(2H)-one]	266%	3.66	12.5 nM
CC1(C(=O)N2CCN(c3cnn(Cc4c(-c5ccc(Cl)cn5)noc4C4CC4)c(=O)c3)CC2)CC1 [Example 26, 2-((3-(5-Chloropyridin-2-yl)-5-cyclopropylisoxazol-4-yl)methyl)-5-(4-(1-methylcyclopropanecarbonyl)piperazin-1-yl)pyridazin-3(2H)-one]	247%	3.47	28.4 nM
Cc1ccc(-c2noc(C)c2Cn2ncc(N3CCC(C(=O)NC4CC4)CC3)cc2=O)cn1 [Example 27, N-cyclopropyl-1-[1-[[5-methyl-3-(6-methyl-3-pyridyl)isoxazol-4-yl]methyl]-6-oxo-pyridazin-4-yl]piperidine-4-carboxamide]	100%	2	14.2 nM
Cc1ccc(-c2noc(C)c2Cn2ncc(N3C[C@H]4CC[C@@H](C3)O4)cc2=O)cn1 [Example 28, 2-[[5-methyl-3-(6-methyl-3-pyridyl)isoxazol-4-yl]methyl]-5-[(1R,5S)-8-oxa-3-azabicyclo[3.2.1]octan-3-yl]pyridazin-3-one]	136%	2.36	0.6 nM
